For 6 compounds, IC50 results are on record in ChEMBL document CHEMBL1150141, “Cytotoxic diarylheptanoids from the roots of Juglans mandshurica” (J Nat Prod, 2002).

One experiment relates to A549. The experiment is described as follows: Cytotoxicity against human A549 cells by MTT assay. The format is functional, cell-based. Background: Formazan colour is commonly taken as a measure of viable cells.
Another experiment deals with HT-29. The experiment is described as follows: Cytotoxicity against human HT-29 cells by MTT assay. The experiment is classed as functional, cell-based.

≈ marks a conversion by molar mass, not a printed value.

For the compound `COc1cc(CC/C=C/C(=O)CCc2ccc(O)cc2)ccc1O`, the IC50 (in general, the midpoint of a concentration-inhibition curve) with A549 was determined as 5.4 µg/mL (≈ 16.5 µM); in the experiment with HT-29 it was 8.2 µg/mL (≈ 25.1 µM).

Turning to `CC(C)(O)[C@@H]1CC[C@@]2(C)CCC[C@@](C)(O)[C@@H]2C1`, the figures for the IC50 in the experiment with A549 and with HT-29 were 9.9 µg/mL (≈ 41.2 µM) and 12.9 µg/mL (≈ 53.7 µM), respectively.

Regarding `COC(=O)C(O)(c1cc2c(c3oc([C@]4(C)C[C@@H]4C)cc(=O)c13)C(=O)c1c(ccc([C@H]3C[C@](C)(N(C)C)[C@H](O[C@@H]4C[C@H](OC)[C@H](O)[C@@H](C)O4)[C@H](C)O3)c1O)C2=O)[C@H]1O[C@H](C)[C@@H](O)[C@@H](OC)[C@@H]1O` (some centres not stated) [ALTROMYCIN B], the IC50 in the experiment with A549 is 4.2 µg/mL (≈ 4.55 µM); in the experiment with HT-29, 3.9 µg/mL (≈ 4.22 µM).

Take `COc1cc(C2CC(O)CC(C(O)Cc3ccc(O)cc3)O2)ccc1O` (configuration not stated): the IC50 with A549 and in the experiment with HT-29 was greater than 50 µg/mL in each case.

For `COc1cc2ccc1Oc1cc(ccc1O)CCC(=O)CCCC2`, the IC50 in the experiment with A549 was found to be 2.2 µg/mL (≈ 6.74 µM); in the experiment on HT-29 it was 5.3 µg/mL (≈ 16.2 µM).

On to `COc1ccc2cc1Oc1ccc(c(O)c1OC)CCCCC(O)CC2` (configuration not stated), for which the figures for the IC50 in the experiment with A549 and with HT-29 were 11.5 µg/mL (≈ 32.1 µM) and 23.9 µg/mL (≈ 66.7 µM), respectively.
